Data on 2 sequences can be found in article PMC9482650, “Quantitative fragmentomics allow affinity mapping of interactomes” (Nature Communications, 2022).

Holding throughout (assay): Holdup assay
Assay type in all cases: binding

The target of one assay is PDZRN4_2 PDZ (Homo sapiens, UniProt Q6ZMN7). The note with it: sheet PPI_convert; read-out: affinity to PDZ PDZRN4_2 (converted).
In the next assay the target is LIN7B PDZ (Homo sapiens, UniProt Q9HAP6). To be noted: composite holdup affinity; 0.00=below quantification threshold; read-out: COMP pKd (converted).
Sequence of LIN7B PDZ (Q9HAP6 93-175 limits assumed): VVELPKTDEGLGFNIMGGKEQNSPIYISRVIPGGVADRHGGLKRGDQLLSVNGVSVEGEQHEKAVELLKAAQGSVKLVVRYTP
In another assay the target is GRIP1_1 PDZ (Homo sapiens, UniProt Q9Y3R0). To be noted: sheet PPI_convert; read-out: affinity to PDZ GRIP1_1 (converted).
Sequence of GRIP1_1 PDZ (Q9Y3R0 53-136 limits assumed): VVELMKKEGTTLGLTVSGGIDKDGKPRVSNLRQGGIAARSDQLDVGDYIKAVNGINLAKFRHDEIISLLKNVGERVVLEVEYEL
The next assay has as its target LIMK2 PDZ (Homo sapiens, UniProt P53671). The note with it: composite holdup affinity; 0.00=below quantification threshold; read-out: COMP pKd (converted).
For a further assay, the target named is Inadl_8 PDZ (Homo sapiens, UniProt Q8NI35). To be noted: composite holdup affinity; 0.00=below quantification threshold; read-out: COMP pKd (converted).
Sequence of Inadl_8 PDZ (Q8NI35 1437-1520 limits assumed): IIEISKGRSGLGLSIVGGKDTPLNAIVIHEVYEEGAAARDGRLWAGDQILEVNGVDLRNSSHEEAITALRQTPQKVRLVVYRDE
The target of the next assay is GRIP2_6 PDZ (Homo sapiens, UniProt Q9C0E4). To be noted: composite holdup affinity; 0.00=below quantification threshold; read-out: COMP pKd (converted).
Sequence of GRIP2_6 PDZ (Q9C0E4 656-738 limits assumed): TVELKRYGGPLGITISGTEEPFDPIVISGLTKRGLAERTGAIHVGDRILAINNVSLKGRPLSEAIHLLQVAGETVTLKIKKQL
In another assay the target is GRIP2_3 PDZ (Homo sapiens, UniProt Q9C0E4). The note with it: composite holdup affinity; 0.00=below quantification threshold; read-out: COMP pKd (converted).
Sequence of GRIP2_3 PDZ (Q9C0E4 248-332 limits assumed): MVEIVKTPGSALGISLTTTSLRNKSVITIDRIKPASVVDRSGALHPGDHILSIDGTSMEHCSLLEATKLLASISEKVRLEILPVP
The next assay has as its target LIN7A PDZ (Homo sapiens, UniProt O14910). To be noted: composite holdup affinity; 0.00=below quantification threshold; read-out: COMP pKd (converted).
The target of the next assay is HTRA1 PDZ (Homo sapiens, UniProt Q92743). The note with it: composite holdup affinity; 0.00=below quantification threshold; read-out: COMP pKd (converted).
Sequence of HTRA1 PDZ (Q92743 365-467 limits assumed): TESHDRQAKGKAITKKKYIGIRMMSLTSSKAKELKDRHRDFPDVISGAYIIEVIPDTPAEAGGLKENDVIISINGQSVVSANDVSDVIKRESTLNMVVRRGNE
A further assay has as its target Inadl_3 PDZ (Homo sapiens, UniProt Q8NI35). The note with it: composite holdup affinity; 0.00=below quantification threshold; read-out: COMP pKd (converted).
In another assay the target is FRMPD2_3 PDZ (Homo sapiens, UniProt Q68DX3). The note with it: composite holdup affinity; 0.00=below quantification threshold; read-out: COMP pKd (converted).
Sequence of FRMPD2_3 PDZ (Q68DX3 1079-1167 limits assumed): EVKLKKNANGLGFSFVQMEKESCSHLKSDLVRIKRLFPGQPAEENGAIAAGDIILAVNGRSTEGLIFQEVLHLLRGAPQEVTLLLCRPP
A further assay has as its target FRMPD2_1 PDZ (Homo sapiens, UniProt Q68DX3). To be noted: composite holdup affinity; 0.00=below quantification threshold; read-out: COMP pKd (converted).
The next assay addresses PDZD2_3 PDZ (Homo sapiens, UniProt O15018). The note with it: sheet PPI_convert; read-out: affinity to PDZ PDZD2_3 (converted).
Another assay deals with RADIL PDZ (Homo sapiens, UniProt Q96JH8). The note with it: composite holdup affinity; 0.00=below quantification threshold; read-out: COMP pKd (converted).
Sequence of RADIL PDZ (Q96JH8 976-1061 limits assumed): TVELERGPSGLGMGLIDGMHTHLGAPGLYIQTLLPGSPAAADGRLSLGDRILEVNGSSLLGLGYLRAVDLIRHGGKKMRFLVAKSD
For the next assay, the target named is CNKSR1 PDZ (Homo sapiens, UniProt Q969H4). The note with it: sheet PPI_convert; read-out: affinity to PDZ CNKSR1 (converted). From the text: Supplement 41467_2022_33018_MOESM4_ESM.xlsx, sheet "PPI_convert" | column: CNKSR1
Sequence of CNKSR1 PDZ (Q969H4 196-285 limits assumed): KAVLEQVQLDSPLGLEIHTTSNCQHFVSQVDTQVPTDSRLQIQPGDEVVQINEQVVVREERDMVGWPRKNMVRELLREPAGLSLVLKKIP
For the next assay, the target named is PDZRN3_2 PDZ (Homo sapiens, UniProt Q9UPQ7). To be noted: sheet PPI_convert; read-out: affinity to PDZ PDZRN3_2 (converted).
Sequence of PDZRN3_2 PDZ (Q9UPQ7 419-503 limits assumed): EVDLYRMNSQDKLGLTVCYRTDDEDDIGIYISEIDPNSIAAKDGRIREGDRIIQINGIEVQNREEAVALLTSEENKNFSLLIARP
A further assay deals with PARD3B_2 PDZ (Homo sapiens, UniProt Q8TEW8). The note with it: sheet PPI_convert; read-out: affinity to PDZ PARD3B_2 (converted).
Sequence of PARD3B_2 PDZ (Q8TEW8 383-468 limits assumed): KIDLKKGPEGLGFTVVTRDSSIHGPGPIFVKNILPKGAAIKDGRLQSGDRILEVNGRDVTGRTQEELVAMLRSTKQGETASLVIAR

Ends that are not written are not given here.

Sequence of FRMPD2_1 PDZ (Q68DX3 775-861 limits assumed): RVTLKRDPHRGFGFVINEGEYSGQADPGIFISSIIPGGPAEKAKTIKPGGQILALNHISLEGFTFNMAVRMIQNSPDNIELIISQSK
Sequence of LIMK2 PDZ (P53671 152-239 limits assumed): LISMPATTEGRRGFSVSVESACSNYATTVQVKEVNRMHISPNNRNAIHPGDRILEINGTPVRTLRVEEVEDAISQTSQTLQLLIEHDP
Sequence of LIN7A PDZ (O14910 108-190 limits assumed): as the sequence (Q9HAP6 93-175 limits assumed) above, with I15V, V30I, D37E, Q60H, Q72K, G73D counted along it
Sequence of Inadl_3 PDZ (Q8NI35 365-453 limits assumed): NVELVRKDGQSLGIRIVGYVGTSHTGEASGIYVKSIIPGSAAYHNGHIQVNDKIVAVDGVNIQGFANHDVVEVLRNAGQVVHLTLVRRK
Sequence of PDZRN4_2 PDZ (Q6ZMN7 402-486 limits assumed): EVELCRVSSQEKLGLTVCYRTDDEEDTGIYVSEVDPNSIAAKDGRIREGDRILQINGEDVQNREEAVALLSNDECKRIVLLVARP
Sequence of PDZD2_3 PDZ (O15018 586-672 limits assumed): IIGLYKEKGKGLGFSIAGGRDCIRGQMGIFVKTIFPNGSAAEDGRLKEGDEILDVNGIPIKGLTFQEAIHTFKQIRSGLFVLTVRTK

RHTTSTETAV [HPV30-E6]: the Kd at PDZRN4_2 PDZ is 33.1 µM; on LIN7B PDZ, 195 µM; on GRIP1_1 PDZ, 25.7 µM; at LIMK2 PDZ, 141 µM; on Inadl_8 PDZ, 115 µM; on GRIP2_6 PDZ it was 170 µM. Moreover, the Kd at GRIP2_3 PDZ is 245 µM; on LIN7A PDZ, 158 µM; on HTRA1 PDZ, 186 µM; on Inadl_3 PDZ, 170 µM; at FRMPD2_3 PDZ, 135 µM; at FRMPD2_1 PDZ it was 72.4 µM.

As for RTRQRNETQV [HPV51-E6], the Kd on PDZD2_3 PDZ is 60.3 µM; at RADIL PDZ it was 151 µM; at CNKSR1 PDZ, 36.3 µM; at PDZRN3_2 PDZ, 69.2 µM; on PARD3B_2 PDZ, 40.7 µM.
